In paper PMC11249953, “c-KIT inhibitors reduce pathology and improve behavior in the Tg(SwDI) model of Alzheimer’s disease” (Life Science Alliance, 2024):

Experiments:
CIT = molecular target: T1, CIT (Homo sapiens, UniProt O14578); assay: KINOMEscan competition binding, CIT; details: 10 µM compound; for remaining binding at 10 µM: lower = stronger binding, read-out: CIT %Ctrl @ 10000nM (POC)
T1 construct: DNA label for qPCR read-out (T7 phage fusion or DNA tag); purchased Eurofins DiscoverX Corporation; host or cells: T7 phage in E. coli (BL21-derived) or HEK-293
Method: (§1) The KINOMEscan screening platform (Eurofins DiscoverX Corporation) was performed using active site-directed competition binding assay to quantitatively measure interactions between BK40143 and BK40197 and more than 450 human kinases and disease relevant mutant variants. […] Screening “hits” are identified by measuring the amount of kinase captured in test (BK40143 and BK40197) versus control samples by using a quantitative and ultra-sensitive qRT-PCR method that detects the associated DNA label. BK40143 and BK40197 were screened at 10 µM concentration, and results for primary screen binding interactions were reported as “% Ctrl” (POC), where lower numbers indicate stronger hits and calculated as follows: [test compound signal−positive control signal/negative control signal−positive control signal]×100
(§2) negative control = DMSO (100% Ctrl)
(§3) positive control = control compound (0% Ctrl)
(§4) Based on screening data from of profiled compounds, a proportional relationship between primary screening results and corresponding compound/target affinities can be described as binding constants (Kd values) for the indicated ranges of POC values with tighter binding (higher affinity) interactions associated with lower POC values and weaker binding (lower affinity) associated with higher POC values. Briefly, kinase-tagged T7 phage strains were grown in parallel in 24-well blocks in an E. coli host derived from the BL21 strain. E. coli were grown to log-phase and infected with T7 phage from a frozen stock (multiplicity of infection = 0.4) and incubated with shaking at 32°C until lysis (90–150 min). The lysates were centrifuged (6,000g) and filtered (0.2 μm) to remove cell debris. The remaining kinases were produced in HEK-293 cells and subsequently tagged with DNA for qRT-PCR detection. Streptavidin-coated magnetic beads were treated with biotinylated small molecule ligands for 30 min at RT to generate affinity resins for kinase assays. The liganded beads were blocked with excess biotin and washed with blocking buffer (1% BSA, 0.05% Tween 20, 1 mM DTT; SeaBlock [Pierce]) to remove unbound ligand and to reduce non-specific phage binding. Binding reactions were assembled by combining kinases, liganded affinity beads, and test compounds in 1x binding buffer (20% 0.17x PBS, 0.05% Tween 20, 6 mM DTT; SeaBlock). Test compounds were prepared as 100x stocks in 100% DMSO and directly diluted into the assay. All reactions were performed in polypropylene 384-well plates in a final volume of 0.02 ml. The assay plates were incubated at RT with shaking for 1 h and the affinity beads were washed with wash buffer (1x PBS, 0.05% Tween 20). […] The kinase concentration in the eluates was measured by qRT-PCR.

SYK = molecular target: T2, SYK (Homo sapiens, UniProt P43405); assay: KINOMEscan competition binding, SYK; details: 10 µM compound; for remaining binding at 10 µM: lower = stronger binding, read-out: SYK %Ctrl @ 10000nM (POC)
T2 construct: DNA label for qPCR read-out (T7 phage fusion or DNA tag); purchased Eurofins DiscoverX Corporation; host or cells: T7 phage in E. coli (BL21-derived) or HEK-293
Method: as §1, §2, §3, §4

RIOK3 = molecular target: T3, RIOK3 (Homo sapiens, UniProt O14730); assay: KINOMEscan competition binding, RIOK3; details: 10 µM compound; for remaining binding at 10 µM: lower = stronger binding, read-out: RIOK3 %Ctrl @ 10000nM (POC)
T3 construct: DNA label for qPCR read-out (T7 phage fusion or DNA tag); purchased Eurofins DiscoverX Corporation; host or cells: T7 phage in E. coli (BL21-derived) or HEK-293
T3 sequence (O14730 1-519): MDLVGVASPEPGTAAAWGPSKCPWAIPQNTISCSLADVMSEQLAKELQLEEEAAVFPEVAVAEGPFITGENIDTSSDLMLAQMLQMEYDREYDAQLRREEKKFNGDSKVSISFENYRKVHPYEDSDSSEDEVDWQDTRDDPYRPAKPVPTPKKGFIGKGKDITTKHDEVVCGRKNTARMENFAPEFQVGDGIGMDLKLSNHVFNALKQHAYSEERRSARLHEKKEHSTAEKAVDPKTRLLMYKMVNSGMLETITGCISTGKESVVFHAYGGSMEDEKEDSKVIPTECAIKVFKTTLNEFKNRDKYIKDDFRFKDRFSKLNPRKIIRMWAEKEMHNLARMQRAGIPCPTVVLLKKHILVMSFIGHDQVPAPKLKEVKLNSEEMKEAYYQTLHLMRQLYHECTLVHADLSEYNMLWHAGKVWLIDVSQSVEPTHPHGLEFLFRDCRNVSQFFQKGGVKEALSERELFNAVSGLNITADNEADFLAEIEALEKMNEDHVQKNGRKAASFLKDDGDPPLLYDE
Method: as §1, §2, §3, §4

PIP5K1A = molecular target: T4, PIP5K1A (Homo sapiens, UniProt Q99755); assay: KINOMEscan competition binding, PIP5K1A; details: 10 µM compound; for remaining binding at 10 µM: lower = stronger binding, read-out: PIP5K1A %Ctrl @ 10000nM (POC)
T4 construct: DNA label for qPCR read-out (T7 phage fusion or DNA tag); purchased Eurofins DiscoverX Corporation; host or cells: T7 phage in E. coli (BL21-derived) or HEK-293
Method: as §1, §2, §3, §4

CSF1R = molecular target: T5, CSF1R (Homo sapiens, UniProt P07333); assay: KINOMEscan competition binding, CSF1R; details: 10 µM compound; for remaining binding at 10 µM: lower = stronger binding, read-out: CSF1R %Ctrl @ 10000nM
T5 construct: DNA label for qPCR read-out (T7 phage fusion or DNA tag); purchased Eurofins DiscoverX Corporation; host or cells: T7 phage in E. coli (BL21-derived) or HEK-293
Method: as §1, §2, §3, §4

beclin-1 in TgAPP mice = assay: Western blot for beclin-1 in brain; assay type: in vivo, mouse; details: BK40143 5 mg/kg, BK40197 45 mg/kg, vs DMSO
Method: Brain hemispheres from treated and untreated animals were lysed in 1x STEN buffer and protein concentrations were measured via BCA assay. Samples were normalized to 1 μg/μl and added to 2x Laemmli loading buffer + β-mercaptoethanol and boiled for 10 min to denature the protein. 15 μg of sample were then loaded in 4–12% Bis–Tris gels with MES buffer and electrophoresed, before transfer to a nitrocellulose membrane, where they were blocked with 5% dry milk in 1x TBST and incubated overnight with an anti-Beclin-1 primary antibody (cat. #3739S; Cell Signaling) or a phospho-c-KIT antibody (cat. #44-496G; Invitrogen). The next day, the membrane was washed and treated for 1 h with a goat anti-rabbit HRP-linked secondary followed by SuperSignal West Dura Extended Duration Substrate (cat. #37071; Thermo Fisher Scientific) and imaged on an Amersham Imager 600. This procedure was repeated the next day with an anti-mouse actin primary as a loading control.

[1] = system: IBA1+ microglia of TgAPP mice; assay: IBA1 staining and microglial morphological analysis (Imaris); assay type: in vivo, mouse; details: BK40143 5 mg/kg, BK40197 45 mg/kg, vs DMSO
Method: Staining for amyloid-beta and microglia was performed on left brain hemispheres collected from treated and untreated mice. Brains were cryoprotected with 30% sucrose and sectioned at 30 μm on a cryostat. Sections were then treated with an anti-amyloid beta (6E10, cat. #803001; BioLegend) or anti-IBA1 (cat. # 018-28523; Wako Chemicals) primary followed by either an AlexaFluor secondary (Thermo Fisher Scientific) and DAPI mounting medium (Vector Labs) or a biotinylated secondary and 3, 3′ diaminobenzidine chromogen substrate. Slides were imaged on either a Leica DMi8 light microscope or a Zeiss LSM 800 confocal microscope.
63x z-stack images (0.19 μm intervals) of IBA1 stained microglia from treated and untreated mice were collected on a Zeiss LSM confocal microscope. 3D images were then analyzed using the “surfaces” plug-in in Imaris 10.0 to ascertain cell-surface area. Individual microglial surface areas were calculated in the advanced statistics tab of Imaris.

T1 sequence (O14578 whole entry, the tested form may be a part): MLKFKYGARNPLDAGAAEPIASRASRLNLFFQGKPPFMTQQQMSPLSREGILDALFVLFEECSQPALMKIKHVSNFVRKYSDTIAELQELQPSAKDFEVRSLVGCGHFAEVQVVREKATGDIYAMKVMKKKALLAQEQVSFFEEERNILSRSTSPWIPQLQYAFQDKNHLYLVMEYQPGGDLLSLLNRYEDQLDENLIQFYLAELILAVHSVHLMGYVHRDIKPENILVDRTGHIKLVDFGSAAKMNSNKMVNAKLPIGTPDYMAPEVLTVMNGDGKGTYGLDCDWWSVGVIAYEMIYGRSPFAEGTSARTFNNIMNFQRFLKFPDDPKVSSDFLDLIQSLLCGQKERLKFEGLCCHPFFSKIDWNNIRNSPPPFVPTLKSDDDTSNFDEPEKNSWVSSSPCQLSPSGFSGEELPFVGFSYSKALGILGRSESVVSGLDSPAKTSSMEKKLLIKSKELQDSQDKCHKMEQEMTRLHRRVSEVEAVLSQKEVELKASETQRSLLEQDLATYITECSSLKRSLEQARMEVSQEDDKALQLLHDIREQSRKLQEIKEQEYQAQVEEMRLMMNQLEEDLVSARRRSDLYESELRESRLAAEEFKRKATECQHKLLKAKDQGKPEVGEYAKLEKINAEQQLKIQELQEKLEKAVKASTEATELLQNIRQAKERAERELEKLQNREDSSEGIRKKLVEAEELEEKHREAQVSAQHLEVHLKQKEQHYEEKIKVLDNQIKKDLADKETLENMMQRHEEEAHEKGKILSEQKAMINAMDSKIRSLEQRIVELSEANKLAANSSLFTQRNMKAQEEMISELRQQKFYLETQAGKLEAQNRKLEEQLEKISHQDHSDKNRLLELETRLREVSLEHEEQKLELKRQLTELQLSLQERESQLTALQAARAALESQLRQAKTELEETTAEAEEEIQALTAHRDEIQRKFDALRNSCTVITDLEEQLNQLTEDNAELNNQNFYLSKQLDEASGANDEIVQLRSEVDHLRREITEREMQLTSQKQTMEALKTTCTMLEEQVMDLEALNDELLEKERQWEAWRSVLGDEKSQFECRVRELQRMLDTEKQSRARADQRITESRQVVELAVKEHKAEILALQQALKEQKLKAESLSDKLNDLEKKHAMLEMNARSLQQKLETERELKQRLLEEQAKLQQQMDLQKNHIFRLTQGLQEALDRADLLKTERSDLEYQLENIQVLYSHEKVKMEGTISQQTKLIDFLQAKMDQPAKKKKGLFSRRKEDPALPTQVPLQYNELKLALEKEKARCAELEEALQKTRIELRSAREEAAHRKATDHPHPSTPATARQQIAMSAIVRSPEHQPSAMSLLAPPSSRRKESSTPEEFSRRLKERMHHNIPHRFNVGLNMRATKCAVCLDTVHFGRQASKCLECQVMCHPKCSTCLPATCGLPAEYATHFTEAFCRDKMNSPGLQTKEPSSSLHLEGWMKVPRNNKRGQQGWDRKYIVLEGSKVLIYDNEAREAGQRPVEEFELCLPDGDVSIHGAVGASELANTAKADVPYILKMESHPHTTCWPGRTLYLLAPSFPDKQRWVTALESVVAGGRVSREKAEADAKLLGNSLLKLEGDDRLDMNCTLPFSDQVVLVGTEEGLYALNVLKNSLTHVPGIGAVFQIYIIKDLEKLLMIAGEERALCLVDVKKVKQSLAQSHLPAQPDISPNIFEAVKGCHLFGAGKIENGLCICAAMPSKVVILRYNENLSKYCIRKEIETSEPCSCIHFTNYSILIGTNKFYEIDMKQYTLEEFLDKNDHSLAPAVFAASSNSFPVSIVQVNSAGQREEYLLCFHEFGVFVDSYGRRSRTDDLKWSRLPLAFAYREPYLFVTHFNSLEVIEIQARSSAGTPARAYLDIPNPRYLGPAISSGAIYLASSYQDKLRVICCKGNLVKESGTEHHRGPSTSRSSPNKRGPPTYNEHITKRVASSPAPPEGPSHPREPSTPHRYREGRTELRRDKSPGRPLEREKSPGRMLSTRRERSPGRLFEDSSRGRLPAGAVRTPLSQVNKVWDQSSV
T5 sequence (P07333 20-972): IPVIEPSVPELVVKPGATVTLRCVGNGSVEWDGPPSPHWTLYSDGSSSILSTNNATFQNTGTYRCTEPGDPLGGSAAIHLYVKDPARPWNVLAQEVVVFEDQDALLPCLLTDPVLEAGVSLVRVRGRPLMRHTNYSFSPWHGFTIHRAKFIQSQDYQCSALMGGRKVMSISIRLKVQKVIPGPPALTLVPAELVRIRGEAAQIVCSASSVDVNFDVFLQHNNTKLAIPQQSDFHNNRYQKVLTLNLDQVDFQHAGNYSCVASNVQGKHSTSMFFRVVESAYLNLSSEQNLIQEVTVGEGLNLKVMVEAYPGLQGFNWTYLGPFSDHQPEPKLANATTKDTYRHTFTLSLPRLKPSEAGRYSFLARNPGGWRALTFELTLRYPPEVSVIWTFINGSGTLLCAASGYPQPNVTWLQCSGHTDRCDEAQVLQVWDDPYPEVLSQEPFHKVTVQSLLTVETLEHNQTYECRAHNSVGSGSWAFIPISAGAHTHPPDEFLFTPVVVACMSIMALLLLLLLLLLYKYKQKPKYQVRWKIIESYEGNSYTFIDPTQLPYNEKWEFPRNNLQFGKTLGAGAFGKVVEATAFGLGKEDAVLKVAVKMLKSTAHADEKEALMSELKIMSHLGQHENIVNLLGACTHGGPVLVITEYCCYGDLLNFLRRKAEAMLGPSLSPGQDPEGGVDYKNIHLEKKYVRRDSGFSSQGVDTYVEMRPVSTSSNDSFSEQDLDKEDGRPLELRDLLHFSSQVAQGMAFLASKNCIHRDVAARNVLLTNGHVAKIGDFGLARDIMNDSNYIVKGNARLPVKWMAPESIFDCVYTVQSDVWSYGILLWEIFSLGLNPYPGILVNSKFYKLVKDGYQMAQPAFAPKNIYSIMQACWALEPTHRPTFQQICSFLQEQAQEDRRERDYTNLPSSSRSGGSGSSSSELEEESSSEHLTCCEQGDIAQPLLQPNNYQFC
T4 sequence (Q99755 whole entry, the tested form may be a part): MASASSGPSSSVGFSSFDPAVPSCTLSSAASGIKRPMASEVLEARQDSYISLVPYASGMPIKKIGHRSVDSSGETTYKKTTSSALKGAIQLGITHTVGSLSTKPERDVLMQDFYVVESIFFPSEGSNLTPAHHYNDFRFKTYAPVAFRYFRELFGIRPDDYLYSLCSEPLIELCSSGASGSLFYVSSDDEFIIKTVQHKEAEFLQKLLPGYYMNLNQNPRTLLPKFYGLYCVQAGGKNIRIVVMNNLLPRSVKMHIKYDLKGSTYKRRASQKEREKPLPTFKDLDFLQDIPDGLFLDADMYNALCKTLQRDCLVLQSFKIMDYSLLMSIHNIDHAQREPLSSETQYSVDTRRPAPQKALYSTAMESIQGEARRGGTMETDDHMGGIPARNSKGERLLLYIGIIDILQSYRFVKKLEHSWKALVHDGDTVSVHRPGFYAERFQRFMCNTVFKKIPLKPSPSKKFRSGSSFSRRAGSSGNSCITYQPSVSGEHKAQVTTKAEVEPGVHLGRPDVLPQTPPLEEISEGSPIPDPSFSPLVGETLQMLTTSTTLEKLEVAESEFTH

In the case of Cc1cccc(-c2cc3nccc(N4CCOCC4)c3s2)c1 [BK40197], the inhibition at 10 µM (CIT) is reported as 19%, the remaining binding at 10 µM (CIT) is reported as 81% and the inhibition at 10 µM (SYK) is reported as 56%. It also gave a remaining binding at 10 µM (SYK) of 44%, an inhibition at 10 µM (RIOK3) of 95.2% and a remaining binding at 10 µM (RIOK3) of 4.8%. The inhibition at 10 µM (PIP5K1A) was 94.9%, the remaining binding at 10 µM (PIP5K1A) was 5.1% and the inhibition at 10 µM (CSF1R) was 77%. For the same molecule, the remaining binding at 10 µM (CSF1R) was 23%, the “beclin-1 levels in brain (Western blot)” value (beclin-1 in TgAPP mice) was “significant increases in levels of beclin-1” and the “microglial activation (IBA1 staining)” value [1] was “significant reduction in microglial activation”. For the same molecule, the “surface area of microglia (Imaris)” value [1] was “significantly reduced surface area of microglia”.
Work on Cc1cccc(-c2cc3nccc(Nc4ccccc4)c3s2)c1 [BK40143] yielded an inhibition at 10 µM (CIT) of 97.2%, a remaining binding at 10 µM (CIT) of 2.8% and an inhibition at 10 µM (SYK) of 94.5%. The remaining binding at 10 µM (SYK) was 5.5%, the inhibition at 10 µM (RIOK3) was 80% and the remaining binding at 10 µM (RIOK3) was 20%. It also gave an inhibition at 10 µM (PIP5K1A) of 68%, a remaining binding at 10 µM (PIP5K1A) of 32% and an inhibition at 10 µM (CSF1R) of 62%. For the same molecule, the remaining binding at 10 µM (CSF1R) was 38%, the “beclin-1 levels in brain (Western blot)” value (beclin-1 in TgAPP mice) was “significant increases in levels of beclin-1” and the “microglial activation (IBA1 staining)” value [1] was “significant reduction in microglial activation”. The “surface area of microglia (Imaris)” value [1] was “significantly reduced surface area of microglia”.
